Laboratory results as given in US8685936B2, “Sphingosine kinase inhibitor prodrugs” (Apogee Biotechnology Corporation, priority 2009, dated 2014).
Entries after “also recorded” stand apart in the source; their conditions may differ.

Assays:
DSS-colitis model = experiment: Acute DSS-colitis model of inflammatory bowel disease; format: in vivo, C57BL/6 mice; conditions: for colon length (contraction of the colon), ester prodrugs: 4-5 per group (Example 17, FIG. 10)
Description: FIG. 7. Effects of Compound 1 and Compound 2 on the Disease Activity Index (DAI) in the acute DSS-colitis model. […] After 6 days, the DAI was calculated for each group. Values represent the mean±std. dev. for 5-6 mice per group. […] FIG. 8. Effects of Compound 1 and Compound 2 on colon length in the acute DSS-colitis model. […] After 6 days, the animals were sacrificed and the length of the colon was measured. Values represent the mean±std. dev. for 6-7 mice per group. In this model, colon length decreases as the disease progresses. […] FIG. 9. Effects of Compound 1 and Compound 2 on neutrophil infiltration into the colon in the acute DSS-colitis model. […] After 6 days, the animals were sacrificed and the colons were harvested. Myeloperoxidase activity (MPO) was measured and normalized by the protein concentration of the samples. Values represent the mean±std. dev. for 6-7 mice per group. In this model, MPO activity in the colon increases as a result of neutrophil infiltration into the colon as the disease progresses. […] FIG. 10. Effects of ester prodrugs on colon length in the acute DSS-colitis model. C57BL/6 mice were treated for 6 days as follows: 2% DSS in the drinking water and daily oral administration of Vehicle (described in FIG. 7); or 2% DSS in the drinking water and oral administration of 50 mg/kg the indicated ester prodrugs in Vehicle. After 6 days, the animals were sacrificed and the length of the colon was measured. Values represent the mean±std. dev. for 4-5 mice per group. In this model, colon length decreases as the disease progresses. […] FIG. 11. Effects of ester prodrugs on neutrophil infiltration into the colon in the acute DSS-colitis model. C57BL/6 mice were treated for 6 days as follows: 2% DSS in the drinking water and daily oral administration of Vehicle (described in FIG. 7); or 2% DSS in the drinking water and oral administration of 50 mg/kg the indicated ester prodrugs in Vehicle. After 6 days, the animals were sacrificed and the length of the colon was measured. Values represent the mean±std. dev. for 4-5 mice per group. In this model, MPO activity in the colon increases as a result of neutrophil infiltration into the colon as the disease progresses. […] In these experiments, male C57BL/6 mice were provided with standard rodent diet and water ad libitum. After their acclimation, the animals were randomly divided into groups of 5 or 6 for DSS (40,000 MW from ICN Biomedicals, Inc., Aurora, Ohio)- and drug-treatment. The Compounds were dissolved in a Vehicle consisting of 46.7% PEG 400, 46.7% of a solution of 0.375% Tween 80 in saline and 6.6% ethanol, and given once daily (starting on Day 0) by oral gavage in a volume of 0.1 mL per dose. The mice were given normal drinking water or 2% DSS (starting on Day 0) and treated orally with Compound 1 or Compound 2 at a dose of 50 mg/kg daily. The body weight of each animal was measured each day, and the Disease Activity Index (DAI) was scored for each animal on Day 6. On Day 6, the animals were sacrificed by cervical dislocation and the entire colon was removed and measured to the nearest 0.1 cm. The distal 3 cm of the colons were used for biochemical analyses of inflammation markers.

[1] = system: TNBS-induced Crohn's Disease model; experiment: TNBS-induced Crohn's Disease model; format: in vivo
Description: FIG. 12. Effects of Compound 1 and Compound 2 on colon histology in the TNBS-induced Crohn's Disease model. On Day 0, female Sprague-Dawley rats were administered TNBS using a stainless steel catheter that was inserted into the colon (8 cm proximal to the anus; 1.0 mL of solution containing 30 mg TNBS and 20% ethanol in PBS). On Days 0-5 animals received daily oral gavage of Vehicle (described in FIG. 7) or 50 mg/kg of Compound 1 or Compound 2 in Vehicle. On Day 6, the colons were removed, weighed and scored for macroscopic damage. The distal 6 cm were transected for subsequent histology and biochemical analyses. In this model, the macroscopic score is an index of histologic damage to the colon which increases as the disease progresses.
FIG. 13. Effects of Compound 1 and Compound 2 on colon weight in the TNBS-induced Crohn's Disease model. Colon weights were measured for the rats described in FIG. 12. Values represent the mean±std. dev. for 5-6 rats per group. In this model, colon weight increases as the disease progresses due to progressive inflammation-mediated edema.
FIG. 14. Effects of Compound 2 on neutrophil infiltration into the colon in the TNBS-induced Crohn's Disease model. Neutrophil infiltration was evaluated in the rats described in FIG. 12. Values represent the mean±std. dev. for 5-6 rats per group. In this model, MPO activity in the colon increases as a result of neutrophil infiltration into the colon as the disease progresses.
The trinitrobenzene sulfonic acid (TNBS) model in rats provides a rapid, reliable and reproducible IBD model that mimics the manifestations of Crohn's Disease. Application of the hapten TNBS to the colon in the presence of ethanol results in transmural infiltrative disease that is limited to the colon and appears to be an IL-12-driven, Th1-mediated immunologic response. […] TNBS induces measurable injury within 2 to 3 days, peak acute inflammation within a week, and gradual progression into chronic inflammation lasting about 2 months.
To test the efficacy of the Compounds, groups of female Sprague-Dawley rats were administered TNBS on Day 0 and treated with vehicle (as the negative control group), Compound 1 or Compound 2 on Days 0-5 by oral gavage at a dose of 50 mg/kg/day. […] Disease progression was evaluated by macroscopic score, colon weight and colon MPO activity at sacrifice. The macroscopic score measures macroscopic damage within the distal 6 cm of the colon using a system that considers the extent of and number of ulcerations.

[2] = system: Murine JC mammary adenocarcinoma cells; experiment: Cytotoxicity, MTS cell viability assay; format: cell-based; conditions: 72 hours
Description: FIG. 5. Inhibition of tumor cell proliferation by Compound 1 and Compound 2. Murine JC mammary adenocarcinoma cells were exposed to the indicated concentrations of either Compound 1 (▪) or Compound 2 (▴) for 72 hr. At the end of the exposure, the number of viable tumor cells was quantified using the MTS assay. Values represent the fraction of surviving cells compared with DMSO-(vehicle)-treated control cells.
To further assess the biological efficacies of the Compounds in intact cells, Compound 1 and Compound 2 were evaluated for cytotoxicity using a murine breast cancer cell line. These experiments followed methods that have been extensively used. The cells were treated with varying doses of the test Compound for 72 hours, and then cell viability was measured using CellTiter 96® AQueous Non-Radioactive Cell Proliferation Assay (MTS) available from Promega Corporation. Values represent the mean±std. dev. percentage of cells that survive at each of the indicated concentrations of Compound 1 or Compound 2. […] However, the extent of cell killing and the potency for cell killing were greater for Compound 2 than Compound 1.

[3] = Conversion of Compound 2 to Compound 1 in living mice; plasma levels of Compound 1 by HPLC; format: in vivo
Description: FIG. 4. Conversion of Compound 2 into Compound 1 in vivo. Balb/C female mice, 6-8 weeks old, were dosed with either Compound 1 (●) or Compound 2 (♦) at 50 mg/kg by intravenous injection. Mice were euthanized at the indicate times after injection, and blood was harvested by cardiac puncture and plasma was prepared. The plasma was then extracted and analyzed for Compound 1 levels by HPLC.
To extend the in vitro studies described above, the ability of Compound 2 to be converted to Compound 1 in an in vivo test system was determined. In these experiments, Compound 1 or Compound 2 was dissolved in PEG400 and administered to female Balb/C mice at a dose of 50 mg/kg by intravenous injection. Mice were sacrificed and blood was removed via cardiac puncture at 2 minutes, 15 minutes, 30 minutes or 60 minutes. The concentration of Compound 1 in the blood of the animals at each of the time points was determined using HPLC with UV detection as described in the previous Example. […] In the case of administration of Compound 2, plasma concentrations of Compound 1 rose during the first 30 minutes and then were decreased with a half-time of clearance of approximately 20 minutes.

[4] = 2% DSS, 50 mg/kg oral, 6 days, C57BL/6 mice
[5] = TNBS Day 0, 50 mg/kg/day oral gavage Days 0-5, Day 6, female Sprague-Dawley rats

With `CC(C)C(N)C(=O)Oc1cc(CCNC(=O)C23CC4CC(C2)CC(c2ccc(Cl)cc2)(C4)C3)ccc1O` (stereo not drawn) [Compound 6, 2-Amino-3-methyl-butyric acid 5-(2-{[3-(4-chlorophenyl)adamantane-1-carbonyl]amino}ethyl)-2-hydroxyphenyl ester] the “colon length (contraction of the colon), ester prodrugs” value (“colon length … ester prodrugs” below) (DSS-colitis model; [4]) was “effective in preventing the contraction of the colons” and the “colonic MPO activity, ester prodrugs” value (DSS-colitis model; 2% DSS, 50 mg/kg oral, 6 days, C57BL/6 mice, 4-5 per group (Example 17, FIG. 11)) was “all of the Compounds except Compound 6 substantially prevented the elevation of colonic MPO activity”.

With `CCC(=O)Oc1ccc(CCNC(=O)C23CC4CC(C2)CC(c2ccc(Cl)cc2)(C4)C3)cc1OC(=O)CC` [Compound 3, Propionic acid 2-propionyloxy-5-(2-{[3-(4-chlorophenyl)-adamantane-1-carbonyl]-amino}ethyl)phenyl ester] the melting point was 114 to 115 °C and the “colon length … ester prodrugs” value (DSS-colitis model; [4]) was “effective in preventing the contraction of the colons”.

In the case of `CCCC(=O)Oc1ccc(CCNC(=O)C23CC4CC(C2)CC(c2ccc(Cl)cc2)(C4)C3)cc1OC(=O)CCC` [Compound 4, Butyric acid 2-butyryloxy-5-(2-{[3-(4-chlorophenyl)-adamantane-1-carbonyl]-amino}ethyl)phenyl ester], the melting point is reported as 78 to 80 °C and the “colon length … ester prodrugs” value (DSS-colitis model; 2% DSS, 50 mg/kg oral, 6 days, C57BL/6 mice, 50 mg/kg) is reported as “effective in preventing the contraction of the colons; also recorded: slightly less effective”.

In the case of `O=C(NCCc1ccc(O)c(O)c1)C12CC3CC(C1)CC(c1ccc(Cl)cc1)(C3)C2` [Compound 1, 3-(4-Chlorophenyl)-adamantane-1-carboxylic acid [2-(3,4-dihydroxyphenyl)-ethyl]amide], the Compound-related toxicities ([1]; 50 mg/kg/day oral gavage Days 0-5, rats sacrificed on Day 6) is reported as “no Compound-related toxicities apparent”, the “Macroscopic Score of colon damage” value [1, 5] is reported as “but not Compound 1, reduced the Macroscopic Score; also recorded: much less active” and the colon weight [1, 5] is reported as “but not Compound 1 reduced the elevation of the colon weight; also recorded: much less active”. The “Disease Activity Index (DAI)” value (DSS-colitis model; 2% DSS in drinking water, 50 mg/kg daily oral, Day 6, C57BL/6 mice) was “reduced the intensity of the IBD manifestations”, the “colon myeloperoxidase (MPO) activity (neutrophil infiltration)” value (DSS-colitis model; 2% DSS, 50 mg/kg daily oral, Day 6, C57BL/6 mice (Example 16, FIG. 9)) was “markedly attenuated” and the colon length (DSS-colitis model; 2% DSS, 50 mg/kg oral, Day 6, C57BL/6 mice (Example 16, FIG. 8)) was “colons of significantly longer length”. For the same compound, the “inhibition of tumor cell proliferation (cell viability)” value [2] was “can inhibit tumor cell proliferation”, the “time of maximum plasma concentration of Compound 1” value ([3]; 50 mg/kg intravenous, female Balb/C mice, sampling at 2, 15, 30, 60 minutes) was “earliest time point” and the “half-time for clearance of Compound 1 from plasma” value ([3]; 50 mg/kg of the named compound by intravenous injection in PEG400, female Balb/C mice, Compound 1 measured) was “approximately 5 minutes”.
